Measured values published in patent US20250222028A1, “ENGINEERED IMMUNE CELL PLATFORM” (Cancer Research Technology Limited, priority 2022, published 2025).

Columns and labels:
GLI1 = GLI1 mRNA expression by qRT-PCR in human CD8+ T cells and CTLs; assay type: cell-based
Procedure: (§1) FIG. 3. L-type Cav channel agonists increase expression of GLI1 and enhance specific cell killing by human CD8+ CTLs. Naïve human CD8+ T cells were purified from the buffy coat layer of blood isolated from healthy donors, and were stimulated using ImmunoCult™ CD3/CD28/CD2 human T-Cell Activator and again restimulated at day 10 for 3 days. (A) Human CTLs were restimulated on day 15-20 for 24 h with plate-bound anti-CD3 in the presence of 10 μM of FPL64176 or carrier control before RNA was extracted for qRT-PCR analysis. n=1 healthy donor. TBP is used as a reference gene. (B) Updated graph of (A) showing n=3 independent experiments/healthy donors. Gli1 expression is normalised to carrier. […] Error bars indicate SD. p values were calculated using an unpaired two-tailed Student's t test (B) or a two-way ANOVA (C/D). * indicates p<0.05, ** indicates p<0.01, **** indicates p<0.0001.
In order to assess the role of L-type Cav channel agonists in controlling the activation and effector function of human CD8+ T cells, naive primary human CD8+ T cells were purified from the buffy coat layer of blood isolated from healthy donors. Cells were stimulated using ImmunoCult™ Human CD3/CD28/CD2 T Cell Activator beads for 24 hours in the presence of 5 or 10 μM FPL 64176 or carrier control, and GLI1 mRNA expression was assessed by qRT-PCR. […]

P815 target cells = assay: VITAL cytotoxicity assay, human CD8+ CTLs with P815 target cells; assay type: cell-based; conditions: 10 μM, pre-incubation 40-50 mins, vs carrier control
Procedure: as §1, with “carrier. (C) Between day 16 and 24, CD8+ T cells were co-cultured with P815 target cells at indicated effector to target ratios and subjected to a VITAL cytotoxicity assay in the presence of 10 μM FPL64176 (squares) or carrier control (circles). (D) Same data as (C) represented differently.” for “carrier.”
A VITAL assay was subsequently performed to assess the role of L-type Cav agonists with regards to specific tumour cell killing by human CD8+ CTLs. […]

K562 target cells = assay: Flow-cytometry based killing assay, human Vγ9Vδ2 gammadelta T cells with K562 target cells; assay type: cell-based; conditions: 10 μM, killing assessed after 24 hours, vs EtOH carrier control
Procedure: FIG. 12. GLI1 is important for tumour cell killing of human Vγ9Vδ2 gammadelta T cells and treatment with L-type voltage gated Ca2+ channel agonist FPL 64176 increases killing capacity. PBMCs were isolated from Buffy Coats of healthy donors using SepMate PBMC Isolation Tubes. Vγ9Vδ2 expansion was induced by plating PBMCs at 1×10^6 concentration with 1 μM of Zoledronate in the presence of 100 IU/mL IL-2 and 120 IU/mL IL-15. Cells were split every 2-3 days from day 6 until day 20. Killing assays were conducted between day 16-20. (A) Vγ9Vδ2 T lymphocytes were incubated with Gli1/2 inhibitor GANT61 or EToH (carrier control) overnight and subsequently co-cultured with K562 target cells for 24 h at the indicated effector to target ratios and subjected to a flow-cytometry based killing assay. n=1 individual donor. (B) Vγ9Vδ2 cells were pre-incubated with 10 μM FPL 64176 or EToH (carrier control) before being co-cultured with K562 target cells at indicated effector to target ratios and subjected to a flowcytometric cytotoxicity assay in the presence of 10 μM FPL 64176 or EToH (carrier control). Killing was assessed after 24 hours. Tumour cell killing normalised to carrier treated cells at a 10:1 effector:target ratio. n=4 individual healthy donors from 2 independent experiments. […]

MC38-Ova tumour = assay: Adoptive transfer of agonist-treated OTI T cells into MC38-Ova tumour bearing Rag2 KO mice, Cleaved Caspase 3 immunohistochemistry; assay type: in vivo; conditions: T cells re-stimulated in vitro with agonist before transfer; tumours excised 24 hours after transfer
Procedure: FIG. 13. […] Cytotoxic OTI T cells were re-stimulated in vitro in the presence of FPL 64176 or carrier control before adoptive transfer into MC38-Ova tumour bearing Rag2 KO mice via tail vein injection. 24 hours after the adoptive transfer, tumours were excised and analysed by immunohistochemistry for Cleaved Caspase 3 (A). 3 mice per condition, % CC3 over whole tumour area from all mice. (B) Repeat experiment with 3-4 mice per condition. Each data point represents the average CC3 staining of 3 separate tumour sections. Overall CC3 staining (top panel) and weak, moderate, and strong CC3 staining (bottom row), respectively, are shown.
As described above, the present invention may find use in adoptive transfer. To investigate the applicability of Cav channel agonist treatment in an adoptive transfer treatment regime, cytotoxic OTI T cells were re-stimulated in vitro in the presence of FPL 64176 or carrier control before adoptive transfer into MC38-Ova tumour bearing Rag2 KO mice via tail vein injection. 24 hours after the adoptive transfer, tumours were excised and analysed by immunohistochemistry for Cleaved Caspase 3. FIGS. 13A&B indicate that treatment of tumour-specific T cells with a Cav channel agonist prior to adoptive transfer leads to increased tumour cell killing compared to adoptive transfer with T cells that have not been treated with a Cav channel agonist.

## COC(=O)c1c(C)[nH]c(C)c1C(=O)c1ccccc1Cc1ccccc1 [FPL 64176]
GLI1; human CD8+ CTLs restimulated day 15-20 with plate-bound anti-CD3, 10 μM, 24 hours (FIG. 3B)
  GLI1 expression: increase
GLI1; naive human CD8+ T cells, CD3/CD28/CD2 activator 24 hours, 5 or 10 μM (FIG. 3A)
  GLI1 expression: dose-dependent increase
P815 target cells
  improvement of cell killing: ~70%
K562 target cells
  killing by gammadelta T cells: increased killing
MC38-Ova tumour
  tumour cell death in vivo (Cleaved Caspase 3 staining): increased tumour cell death
